In US10945932B2, “Prebiotic oral care compositions containing carboxylic acids” (COLGATE-PALMOLIVE COMPANY, priority 2013, dated 2021):
Where two headings read alike, the source gives them in different places.

Assays:
Streptococcus gordonii [1] = conditions: S gordonii, BHI
Method: (§5) Late exponential growth phase liquid cultures were prepared by transferring the respective bacterium from blood agar plates to BHI and overnight incubation at 37° C. in an anaerobic atmosphere for A. viscosus, V. parvula, F. nucleatum, P. gingivalis, P. intermedia, T forsythia, A. naeslundii, and C. sputigena, and in a 5% CO2 environment for S. salivarius, S. sanguinis, S. mitis, A. actinomycetemcomitans, S. mutans, S. sobrinus and S. gordonii. Overnight cultures were transferred to BHI and adjusted to a concentration of 1×10^7 CFU/ml (colony forming units per ml) by measuring the optical density at 600 nm (OD600) (BioRad SmartSpec 3000). For each strain, 200 μl of the bacterial suspension was added to a 96-well plate containing 20 μl of the respective carboxylic acids. Final concentrations of the carboxylic acids were set to 5, 10, 20 and 25 μmol/ml. […] Plates were incubated as previously described.
(§6) For each combination of bacterium/carboxylic acid, and for each of their respective controls (i.e. the particular bacterium in the nutritionally rich medium with no carboxylic acid), the optical density was measured at 630 nm (OD630) at 0 h, 24 h and 48 h (Thermo Scientific Multiskan Ascent). Additionally, the OD630 for combinations of bacterium/carboxylic acid grown in a 5% CO2 environment were also measured every hour between 0 h and 9 h.
(§7) The experiment was carried out on three different days (thus providing 3 biological replicas) and on each day the experiment was carried out in quadruple (thus providing 4 technical replicas) for each combination of bacterium with carboxylic acid and for each control. For each day and for each combination, the average (mean) of the values obtained (as detailed above) for the four technical replicas was calculated to provide a single value for each combination on each day.

Capnocytophaga sputigena [2] = conditions: C sputigena, BHI
[3] = test system: beneficial oral bacteria and pathogenic oral bacteria; test: Metabolic activity, prebiotic effect over the whole panel; format: cell-based; conditions: 48 hrs; threshold value of 2
Method: (§1) The extent of metabolic activity of the tested bacteria in the presence of the above-mentioned acids after 24 hours and 48 hours was investigated through a high throughput phenotype microarray system (PM) for microbial cells (Biolog Inc.). Each PM can contain up to 95 different biochemical compounds (e.g. organic acids) that may act as substrates for bacteria as well as one negative control, not containing the substrates. Microarray plates were used in which the different wells of each plate were pre-loaded (by the manufacturer, Biolog Inc.) with different organic acids to be tested. Each bacterial species was tested using a separate microarray plate. Thus, a single bacterial species was tested with a variety of organic acids on each particular plate. The microarrays are based on redox technology, using cell respiration as a universal reporter. […] The observation of this color change indicates which of the substrates improve the metabolic activity and health of the cells.
(§2) Each bacterial species was collected from blood agar plates (incubated for 48 hours anaerobically at 37° C.) and transferred to an IF-0 Base inoculation fluid (Biolog Inc.), which is a nutritionally poor medium. […] A 1:5 dilution of this suspension was prepared by mixing 3 mL of the 42% transmittance cell suspension with 15 mL of an inoculation fluid (which inoculation fluid was formed by mixing 11.6 mL sterile water, 62.5 mL IF-0 base inoculation fluid and 0.9 mL of the tetrazolium dye “Biolog Redox Dye mix D”), resulting in a final cell density which was equal to 85% transmittance using a BioRad SmartSpec 3000 Photometer. For each of the acids tested, the microarray plate (obtained from the supplier (Biolog Inc.) with acid already present in the relevant wells in powder form) was directly inoculated with 100 μL/well of this 85% transmittance cell suspension.
(§3) All plates were incubated in an anaerobic atmosphere at 37° C. Color changes were measured spectrophotometrically at 492 nm (Thermo Scientific Multiskan Ascent) at 24 hrs and 48 hrs using the same plate at both time points.
(§4) The controls were also carried out three times, as above.

[4] = test system: Aggregatibacter actinomycetemcomitans; test: Metabolic activity, Biolog phenotype microarray; format: cell-based; conditions: A actinomycetemcomitans
Method: as §1, §2, §3, §4

Capnocytophaga sputigena [5] = test: Metabolic activity, Biolog phenotype microarray; format: cell-based; conditions: C sputigena
Method: as §1, §2, §3, §4

Streptococcus gordonii [6] = test: Metabolic activity, Biolog phenotype microarray; format: cell-based; conditions: S gordonii
Method: as §1, §2, §3, §4

Streptococcus sanguinis [7] = test: Metabolic activity, Biolog phenotype microarray; format: cell-based; conditions: S sanguinis
Method: as §1, §2, §3, §4

Fusobacterium nucleatum = test: Metabolic activity, Biolog phenotype microarray; format: cell-based; conditions: F nucleatum
Method: as §1, §2, §3, §4

Streptococcus sobrinus = test: Metabolic activity, Biolog phenotype microarray; format: cell-based; conditions: S sobrinus
Method: as §1, §2, §3, §4

Streptococcus salivarius [8] = test: Metabolic activity, Biolog phenotype microarray; format: cell-based; conditions: S salivarius
Method: as §1, §2, §3, §4

Veillonella parvula = test: Metabolic activity, Biolog phenotype microarray; format: cell-based; conditions: V parvula
Method: as §1, §2, §3, §4

Actinomyces naeslundii = test: Metabolic activity, Biolog phenotype microarray; format: cell-based; conditions: A naeslundii
Method: as §1, §2, §3, §4

Streptococcus mitis [9] = test: Metabolic activity, Biolog phenotype microarray; format: cell-based; conditions: S mitis
Method: as §1, §2, §3, §4

Tannerella forsythia = test: Metabolic activity, Biolog phenotype microarray; format: cell-based; conditions: T forsythia
Method: as §1, §2, §3, §4

Porphyromonas gingivalis [10] = test: Metabolic activity, Biolog phenotype microarray; format: cell-based; conditions: P gingivalis
Method: as §1, §2, §3, §4

Streptococcus mutans [11] = test: Metabolic activity, Biolog phenotype microarray; format: cell-based; conditions: S mutans
Method: as §1, §2, §3, §4

Actinomyces viscosus = test: Metabolic activity, Biolog phenotype microarray; format: cell-based; conditions: A viscosus
Method: as §1, §2, §3, §4

Prevotella intermedia [12] = test: Metabolic activity, Biolog phenotype microarray; format: cell-based; conditions: P intermedia
Method: as §1, §2, §3, §4

Porphyromonas gingivalis [13] = conditions: P gingivalis, BHI
Method: as §5, §6, §7

Streptococcus mutans [14] = conditions: S mutans, BHI
Method: as §5, §6, §7

Streptococcus salivarius [15] = conditions: S salivarius, BHI
Method: as §5, §6, §7

Prevotella intermedia [16] = conditions: P intermedia, BHI
Method: as §5, §6, §7

Streptococcus sanguinis [17] = conditions: S sanguinis, BHI
Method: as §5, §6, §7

Streptococcus mitis [18] = conditions: S mitis, BHI
Method: as §5, §6, §7

N[C@@H](CC(=O)O)C(=O)O [L-aspartic acid]
extent of growth, maximal OD630 over 48 hr divided by maximal OD of control (control = 1) (Streptococcus gordonii [1]; 5 μmol/ml): 0.9448 | extent of growth, maximal OD630 over 48 hr divided by maximal OD of control (control = 1) (Streptococcus gordonii [1]; 10 μmol/ml): 0.9400 | extent of growth, maximal OD630 over 48 hr divided by maximal OD of control (control = 1) (Streptococcus gordonii [1]; 20 μmol/ml): 0.9583 | extent of growth, maximal OD630 over 48 hr divided by maximal OD of control (control = 1) (Streptococcus gordonii [1]; 25 μmol/ml): 0.9466 | extent of growth, maximal OD630 over 48 hr divided by maximal OD of control (control = 1) (Capnocytophaga sputigena [2]; 5 μmol/ml): 0.9521 | extent of growth, maximal OD630 over 48 hr divided by maximal OD of control (control = 1) (Capnocytophaga sputigena [2]; 10 μmol/ml): 0.9529 | extent of growth, maximal OD630 over 48 hr divided by maximal OD of control (control = 1) (Capnocytophaga sputigena [2]; 20 μmol/ml): 0.9776 | extent of growth, maximal OD630 over 48 hr divided by maximal OD of control (control = 1) (Capnocytophaga sputigena [2]; 25 μmol/ml): 0.9489 | prebiotic effect (metabolic activity) [3]: exhibited prebiotic effects | metabolic activity, OD at 492 nm divided by OD of control (control = 1) ([4]; 24 hrs): 1.4358 | metabolic activity, OD at 492 nm divided by OD of control (control = 1) ([4]; 48 hrs): 1.6253 | metabolic activity, OD at 492 nm divided by OD of control (control = 1) (Capnocytophaga sputigena [5]; 24 hrs): 0.7060 | metabolic activity, OD at 492 nm divided by OD of control (control = 1) (Capnocytophaga sputigena [5]; 48 hrs): 0.7655 | metabolic activity, OD at 492 nm divided by OD of control (control = 1) (Streptococcus gordonii [6]; 24 hrs): 0.8729 | metabolic activity, OD at 492 nm divided by OD of control (control = 1) (Streptococcus gordonii [6]; 48 hrs): 0.8488 | metabolic activity, OD at 492 nm divided by OD of control (control = 1) (Streptococcus sanguinis [7]; 24 hrs): 0.9451 | metabolic activity, OD at 492 nm divided by OD of control (control = 1) (Streptococcus sanguinis [7]; 48 hrs): 0.9195 | metabolic activity, OD at 492 nm divided by OD of control (control = 1) (Fusobacterium nucleatum; 24 hrs): 0.9201 | metabolic activity, OD at 492 nm divided by OD of control (control = 1) (Fusobacterium nucleatum; 48 hrs): 0.9448 | metabolic activity, OD at 492 nm divided by OD of control (control = 1) (Streptococcus sobrinus; 24 hrs): 1.0053 | metabolic activity, OD at 492 nm divided by OD of control (control = 1) (Streptococcus sobrinus; 48 hrs): 0.9338 | metabolic activity, OD at 492 nm divided by OD of control (control = 1) (Streptococcus salivarius [8]; 24 hrs): 0.9496 | metabolic activity, OD at 492 nm divided by OD of control (control = 1) (Streptococcus salivarius [8]; 48 hrs): 0.8503 | metabolic activity, OD at 492 nm divided by OD of control (control = 1) (Veillonella parvula; 24 hrs): 1.8448 | metabolic activity, OD at 492 nm divided by OD of control (control = 1) (Veillonella parvula; 48 hrs): 2.2760 | metabolic activity, OD at 492 nm divided by OD of control (control = 1) (Actinomyces naeslundii; 24 hrs): 0.8814 | metabolic activity, OD at 492 nm divided by OD of control (control = 1) (Actinomyces naeslundii; 48 hrs): 0.8283 | metabolic activity, OD at 492 nm divided by OD of control (control = 1) (Streptococcus mitis [9]; 24 hrs): 1.0323 | metabolic activity, OD at 492 nm divided by OD of control (control = 1) (Streptococcus mitis [9]; 48 hrs): 0.9065 | metabolic activity, OD at 492 nm divided by OD of control (control = 1) (Tannerella forsythia; 24 hrs): 0.9565 | metabolic activity, OD at 492 nm divided by OD of control (control = 1) (Tannerella forsythia; 48 hrs): 0.9575 | metabolic activity, OD at 492 nm divided by OD of control (control = 1) (Porphyromonas gingivalis [10]; 24 hrs): 0.8910 | metabolic activity, OD at 492 nm divided by OD of control (control = 1) (Porphyromonas gingivalis [10]; 48 hrs): 0.9017 | metabolic activity, OD at 492 nm divided by OD of control (control = 1) (Streptococcus mutans [11]; 24 hrs): 0.9715 | metabolic activity, OD at 492 nm divided by OD of control (control = 1) (Streptococcus mutans [11]; 48 hrs): 0.8709 | metabolic activity, OD at 492 nm divided by OD of control (control = 1) (Actinomyces viscosus; 24 hrs): 0.9434 | metabolic activity, OD at 492 nm divided by OD of control (control = 1) (Actinomyces viscosus; 48 hrs): 0.9275 | metabolic activity, OD at 492 nm divided by OD of control (control = 1) (Prevotella intermedia [12]; 24 hrs): 0.9390 | metabolic activity, OD at 492 nm divided by OD of control (control = 1) (Prevotella intermedia [12]; 48 hrs): 0.9154 | extent of growth, maximal OD630 over 48 hr divided by maximal OD of control (control = 1) (Porphyromonas gingivalis [13]; 5 μmol/ml): 1.0608 | extent of growth, maximal OD630 over 48 hr divided by maximal OD of control (control = 1) (Porphyromonas gingivalis [13]; 10 μmol/ml): 1.0376 | extent of growth, maximal OD630 over 48 hr divided by maximal OD of control (control = 1) (Porphyromonas gingivalis [13]; 20 μmol/ml): 1.0578 | extent of growth, maximal OD630 over 48 hr divided by maximal OD of control (control = 1) (Porphyromonas gingivalis [13]; 25 μmol/ml): 1.0084 | extent of growth, maximal OD630 over 48 hr divided by maximal OD of control (control = 1) (Streptococcus mutans [14]; 5 μmol/ml): 0.9466 | extent of growth, maximal OD630 over 48 hr divided by maximal OD of control (control = 1) (Streptococcus mutans [14]; 10 μmol/ml): 0.9230 | extent of growth, maximal OD630 over 48 hr divided by maximal OD of control (control = 1) (Streptococcus mutans [14]; 20 μmol/ml): 0.9036 | extent of growth, maximal OD630 over 48 hr divided by maximal OD of control (control = 1) (Streptococcus mutans [14]; 25 μmol/ml): 0.9149 | extent of growth, maximal OD630 over 48 hr divided by maximal OD of control (control = 1) (Streptococcus salivarius [15]; 5 μmol/ml): 0.9808 | extent of growth, maximal OD630 over 48 hr divided by maximal OD of control (control = 1) (Streptococcus salivarius [15]; 10 μmol/ml): 0.9975 | extent of growth, maximal OD630 over 48 hr divided by maximal OD of control (control = 1) (Streptococcus salivarius [15]; 20 μmol/ml): 1.0719 | extent of growth, maximal OD630 over 48 hr divided by maximal OD of control (control = 1) (Streptococcus salivarius [15]; 25 μmol/ml): 0.9943 | extent of growth, maximal OD630 over 48 hr divided by maximal OD of control (control = 1) (Prevotella intermedia [16]; 5 μmol/ml): 1.0755 | extent of growth, maximal OD630 over 48 hr divided by maximal OD of control (control = 1) (Prevotella intermedia [16]; 10 μmol/ml): 1.1717 | extent of growth, maximal OD630 over 48 hr divided by maximal OD of control (control = 1) (Prevotella intermedia [16]; 20 μmol/ml): 1.1438 | extent of growth, maximal OD630 over 48 hr divided by maximal OD of control (control = 1) (Prevotella intermedia [16]; 25 μmol/ml): 1.1396 | extent of growth, maximal OD630 over 48 hr divided by maximal OD of control (control = 1) (Streptococcus sanguinis [17]; 5 μmol/ml): 0.8662 | extent of growth, maximal OD630 over 48 hr divided by maximal OD of control (control = 1) (Streptococcus sanguinis [17]; 10 μmol/ml): 0.8606 | extent of growth, maximal OD630 over 48 hr divided by maximal OD of control (control = 1) (Streptococcus sanguinis [17]; 20 μmol/ml): 0.8622 | extent of growth, maximal OD630 over 48 hr divided by maximal OD of control (control = 1) (Streptococcus sanguinis [17]; 25 μmol/ml): 0.8613 | extent of growth, maximal OD630 over 48 hr divided by maximal OD of control (control = 1) (Streptococcus mitis [18]; 5 μmol/ml): 1.2333 | extent of growth, maximal OD630 over 48 hr divided by maximal OD of control (control = 1) (Streptococcus mitis [18]; 10 μmol/ml): 1.2959 | extent of growth, maximal OD630 over 48 hr divided by maximal OD of control (control = 1) (Streptococcus mitis [18]; 20 μmol/ml): 1.2536 | extent of growth, maximal OD630 over 48 hr divided by maximal OD of control (control = 1) (Streptococcus mitis [18]; 25 μmol/ml): 1.1257
